In US20170105407A1, “COMPOSITIONS AND METHODS FOR ENHANCING RED BLOOD CELL STORAGE TIME AND SURVIVABILITY USING NITRIC OXIDE RELEASING HYBRID HYDROGEL NANOPARTICLES” (ALBERT EINSTEIN COLLEGE OF MEDICINE, INC., priority 2014, published 2017):
“Also recorded” adds a separate entry of the source.

Experiments:
[1] = test system: stored RBCs; test: Storage lesion parameters of stored RBCs over 42 days (2,3-DPG, potassium, pH, free hemoglobin, microparticles); format: cell-based, human, hamster, rat; details: for 2,3 DPG level during storage / Levels of free hemoglobin (hemolysis) during storage / Potassium levels during storage / pH (acidification) during storage: all species (human, hamster, rat), 42 days storage; for Microparticle formation in stored blood: human, hamster, rat blood
Procedure: NO releasing nanoparticles were added to the blood at 10 mg per 125 mL of whole blood. Stored blood was treated with the nanoparticles once every 48 hours at the above described dosing over a period of 21 days for the in vivo transfusion studies. The storage lesion studies were extended to a period of 6 weeks.
In this example, the procedure was substantially the same as Example 6.1, except that transfused blood was stored for 42 days, and included human, hamster, and rat blood. FIGS. 5(D)-(F) show potassium levels and hemolysis over a six week period.
Human RBC units were purchased from the San Diego Blood bank. Blood were preserved in blood collection bags and kept at 4° C.
Blood was obtained from donor rats (˜300 g) Animals were anaesthetized (pentobarbital 60 mg/kg ip) and a femoral catheter (PE-50) was implanted and blood was drawn into 10 mL syringes containing 1.5 mL of citrate, phosphate, dextrose adenine solution (CPDA-1). Blood was leukoreduced, by passing through a neonatal high efficiency leukocyte reduction filter Purecell NEO (Pall Company, East Hills, N.Y.). The leukoreduced blood was centrifuged for 10 minutes at 1350 rpm and supernatant was partially removed to achieve approximately 75% Hct. Packed cell were transferred under sterile conditions to a preservative free blood collection tube and kept at 4° C.
Blood was obtained from donor hamsters (˜80 g). Hamsters were anaesthetized (pentobarbital 60 mg/kg ip) and femoral catheter implanted. The blood from three hamsters was drawn into 10 mL syringes containing 1.5 mL CPDA-1, then leukoreduced as described before and centrifuged. Hamster packed cells were preserved in blood collection tube and kept at 4° C.

[2] = test system: stored RBCs; test: RBC glycolytic metabolism during storage over 42 days; format: cell-based; details: for ATP produced vs control / Adenine in stored blood vs control / Citrate in stored blood vs control / Glucose in stored blood vs control / Lactate produced vs control / Mannitol in stored blood vs control / Pyruvate produced vs control: over 42 days
Procedure: In this example, the glyocotic metabolic mechanism was tested in stored blood. […] The main metabolic pathway of RBC is glycolysis and is primarily fueled by glucose. Glucose enters a RBC and is metabolized to produce ATP, and also pyruvate which in turn is converted to lactate. […] This pathway serves primarily to reduce nicotinamide adenine dinucleotide phosphate (NADPH). In conjunction with the glutathione reductase/peroxidase system, NADPH maintains the sulfhydryl groups of globin in their reduced state.
In order to test RBC metabolism, four sets of stored RBCs were tested: RBCs treated with NO releasing nanoparticles (NOnp), RBCs treated with the S-nitrosothiol derivative of glutathione (GSNO), RBCs treated with NONOates (DTPANO), and a control group of RBCs that were not supplemented. GSNO, which due to its long half-life and ability to transnitrosate, has greater antimicrobial activity then NOnp alone against clinical isolates of gram positive and negative multi drug resistant pathogens. Given both the extended bioactive lifetime of GSNO compared to free NO and the potential differences in target tissues/cells and the success achieved with the NO releasing nanoparticle platform, it was undertaken to produce nanoparticles that were similar in character and structure, but with the capability of either releasing GSNO species or transferring NO via S-transnitrosation. FIGS. 8(A)-(D) show the behavior of various elements of the first step of the glycotic pathway over a period of 42 days. […] FIGS. 8(B)-(D) show the amount of adenine, mannitol, and citrate respectively. […] This is important because these components help RBCs resynthesize the energy carrier adenosine triphosphate (ATP). ATP is a key component in extending the shelf life of stored blood. FIGS. 9(A)-(D) depict the key components in the next step of the glycotic pathway, wherein ATP is created and pyruvate is produced and then converted to lactate. The longevity of stored blood increases as more ATP is produced and less pyruvate and lactate is produced. […] Overall, NOnp and GSNO treated RBC are much slower to lose initial metabolic markers of RBC health than both untreated RBCs and those treated with NONOates.

[3] = test system: stored blood; test: Buildup of methemoglobin, plasma nitrite and plasma nitrate in stored blood over six weeks; format: cell-based; details: over a period of six weeks
Procedure: In this example, the buildup of methemoglobin (MetHb), plasma nitrite and plasma nitrate was also measured over a period of six weeks. […] Nitrite levels were measured because higher nitrate levels are associated with positive RBC health and functionality. […] NO supplementation limits the progressive loss of nitrite and nitrate in RBCs, and such loss of nitrite and nitrate has been correlated with an increase in oxidative damage.

[4] = test system: RBC; test: Mechanical properties (flexibility) of RBCs during storage; format: cell-based; details: at 1 week, 3 weeks, 5 weeks and 6 weeks of storage
Excerpt: In this example, as shown in FIGS. 16(A)-(D), RBC flexibility is slowed for RBCs treated with NOnps and GSNO.

SMILES: NCCCN(CCCN)/[N+]([O-])=N/O [DPTANO]
- 2,3 DPG level during storage [1]: prevented 2,3 DPG rapid decrease
- Levels of free hemoglobin (hemolysis) during storage [1]: either did not significantly differentiate from the control, or performed worse
- Potassium levels during storage [1]: either did not significantly differentiate from the control, or performed worse
- pH (acidification) during storage [1]: either did not significantly differentiate from the control, or performed worse
- Microparticle formation in stored blood [1]: faired similarly or worse than the control
- ATP produced vs control [2]: only produces slightly less than the control
- Adenine in stored blood vs control [2]: retained higher amounts of each component than the control
- Citrate in stored blood vs control [2]: retained higher amounts of each component than the control
- Glucose in stored blood vs control [2]: maintaining slightly higher amounts of glucose
- Lactate produced vs control [2]: the control produces much more pyruvate and lactate
- Mannitol in stored blood vs control [2]: retained higher amounts of each component than the control
- Pyruvate produced vs control [2]: the control produces much more pyruvate and lactate
- Methemoglobin (MetHb) formation [3]: more met Hb formation; also recorded: increased the formation of met-hemoglobin
- RBC flexibility [4]: did not vary substantially from that of untreated blood

SMILES: N[C@@H](CCC(=O)N[C@@H](CSN=O)C(=O)NCC(=O)O)C(=O)O [GSNO, S-nitrosothiol derivative of glutathione]
- 2,3 DPG level during storage [1]: prevented 2,3 DPG rapid decrease
- Levels of free hemoglobin (hemolysis) during storage [1]: did not increase the levels of free hemoglobin
- Potassium levels during storage [1]: slowed down potassium levels
- pH (acidification) during storage [1]: prevented rapid acidification
- Microparticle formation in stored blood [1]: reduced microparticle formation
- Glucose-6-phosphate dehydrogenase (G6PD) vs control ([2]; during storage): maintained or even enhanced
- Glyceraldehyde 3-phosphate dehydrogenase (GAPDH) vs control ([2]; during storage): maintained or even enhanced
- Hexokinase (HK) vs control ([2]; during storage): maintained or even enhanced
- Phosphofructokinase (PFK) vs control ([2]; during storage): maintained or even enhanced
- Pyruvate kinase (PK) vs control ([2]; during storage): maintained or even enhanced
- ATP produced vs control [2]: produce more ATP than the control
- Adenine in stored blood vs control [2]: retained higher amounts of each component than the control
- Citrate in stored blood vs control [2]: retained higher amounts of each component than the control
- Glucose in stored blood vs control [2]: maintaining slightly higher amounts of glucose
- Lactate produced vs control [2]: the control produces much more pyruvate and lactate
- Mannitol in stored blood vs control [2]: retained higher amounts of each component than the control
- Pyruvate produced vs control [2]: the control produces much more pyruvate and lactate
- Methemoglobin (MetHb) formation [3]: did not generate significantly more MetHb than the control
- RBC flexibility [4]: remained more flexible than untreated and DPTANO treated blood
